Measurements as given in US10301596B2, “Method of repairing damaged chondrocytes via low-dose irradiation” (KOREA INSTITUTE OF RADIOLOGICAL & MEDICAL SCIENCES, priority 2013, dated 2019).

Columns and labels:
Type in all cases: cell-based
chondrocytes = test: Levels of differentiation- and inflammation-related proteins (type II collagen, Sox-9, I-κB, COX-2), Western blot in chondrocytes
Protocol: First, the chondrocytes derived from joints were cultured in a DMEM medium according to a known method (E. H. Hong, et al., J. Biol. Chem. 285:1283-1295, 2010). Then, the cultured chondrocytes were inoculated into culture dishes at a density of 5×10^4 cells/cm^2, which were irradiated with 0 cGy, 0.5 cGy, 1.0 cGy, 1.5 cGy, and 2.0 cGy LDR using a ^137Cs-ray source (KIRMS, Korea), and the levels of type II collagen or Sox-9 protein, which are cartilage-specific differentiation marker proteins, and I-κB or COX-2 protein, which are inflammation-related proteins, were determined via Western blot analysis, and the transcriptional activity of Sox-9 protein and NF-κB, which is affected by I-κB, were determined by reporter gene assay (FIGS. 1a and b). […]
Finally, chondrocytes were transfected with 3 μg of GFP-labeled S83A α-catenin, FLAG-labeled S33A β-catenin, or wild type γ-catenin, reacted with or without treatment with 5 μM or 10 μM BAY 11-7082 for 24 hours, and the levels of I-κB and COX-2 proteins were determined via Western blot analysis (FIG. 5g). […]

NF-κB = NF-κB transcriptional activity, reporter gene assay in chondrocytes; settings: for NF-κB activity reduced compared to IL-1β-treated chondrocytes: 1 hour before 10 ng/mL IL-1β; for transcriptional activity of NF-κB increased: 10 ng/mL IL-1β
Protocol: (§1) First, the chondrocytes derived from joints were cultured in a DMEM medium according to a known method (E. H. Hong, et al., J. Biol. Chem. 285:1283-1295, 2010). Then, the cultured chondrocytes were inoculated into culture dishes at a density of 5×10^4 cells/cm^2, which were irradiated with 0 cGy, 0.5 cGy, 1.0 cGy, 1.5 cGy, and 2.0 cGy LDR using a ^137Cs-ray source (KIRMS, Korea), and the levels of type II collagen or Sox-9 protein, which are cartilage-specific differentiation marker proteins, and I-κB or COX-2 protein, which are inflammation-related proteins, were determined via Western blot analysis, and the transcriptional activity of Sox-9 protein and NF-κB, which is affected by I-κB, were determined by reporter gene assay (FIGS. 1a and b).
(§2) Chondrocytes were treated with either 10 ng/mL IL-1β alone, or in a combination of IL-1β treatment and 0.5 cGy or 1 cGy LDR, and the transcript levels of type I collagen, type II collagen, Sox-9, COX-2, and I-κB were measured via PCR using GAPDH as a control and a quantitative real-time PCR analysis, and the transcriptional activity of NF-κB was measured by reporter gene assay (FIGS. 2a, 2b, 2c, and 2d).
Meanwhile, chondrocytes were treated with LY294002, which is another chemical inhibitor of PI3K/Akt signaling, at a concentration of 10 μM or 20 μM, reacted for 1 hour, treated with […] reacted for 48 hours. Upon reaction, the levels of type II collagen, Sox-9, I-κB, and COX-2 proteins were determined via Western blot analysis, and the transcriptional activity of NF-κB was determined by reporter gene assay (FIG. 3c).
Finally, chondrocytes were transfected with 3 μg of the respective catenin plasmid for 24 hours, and untreated (−) or treated with 10 ng/mL, IL-1β (+) for 48 hours. Then, the levels of differentiation- and inflammation-related proteins were determined via Western blot analysis, and the transcriptional activity of NF-κB at 24 hours after IL-1β treatment was determined by reporter gene assay (FIG. 4d).
Additionally, the transcriptional activity of Sox-9 or NF-κB was determined by reporter gene assay, and the experimental results were indicated in terms of mean standard deviation (FIG. 5e). As a result, it was confirmed that LDR can increase the activity of Sox-9 in catenin-overexpressing chondrocytes while reducing the transcriptional activity of NF-κB. Specifically, as shown in FIG. 5e (left), 1 cGy LDR irradiation increased Sox-9 activity by about a 2.2-, 2.7-, and 2.4-fold compared to that in cells transfected with […], and, as shown in FIG. 5e (right), reduced NF-κB activity by about 74%, 78%, and 75%, respectively, thus confirming that LDR has the effect of inhibiting the induction of potential inflammation.

Sox-9 = Sox-9 transcriptional activity, reporter gene assay in chondrocytes; settings: 10 ng/mL IL-1β alone
Protocol: as §1, §2
Additionally, the transcriptional activity of Sox-9 or NF-κB was determined by reporter gene assay, and the experimental results were indicated in terms of mean standard deviation (FIG. 5e). […]

COX-2 = COX-2 transcript level by PCR and quantitative real-time PCR in chondrocytes; settings: 10 ng/mL IL-1β
Protocol: as §2

Akt = test: Expression and phosphorylation of Akt and GSK3α/β, Western blot in chondrocytes; settings: 10 ng/mL IL-1β
[1] = tested on: α-, β-, and γ-catenin proteins; test: Levels of catenin proteins, Western blot in chondrocytes; settings: 10 ng/mL IL-1β for a predetermined period of time
Protocol: First, chondrocytes were treated with 10 ng/mL IL-1β for a predetermined period of time, and the levels of the catenin proteins were determined via Western blot analysis (FIG. 4a).
First, it was examined whether LDR can directly regulate the expression of catenin proteins in chondrocytes. In this regard, chondrocytes, which were in a state untreated or treated with 10 ng/mL IL-1β, were irradiated at varied doses of LDR for 48 hours, and the levels of catenin proteins were determined via Western blot analysis (FIGS. 5a and 5h).
In order to examine whether the inhibitory effect of LDR on chondrocyte disorders is exclusively related to the responses to IL-1β, cells were treated with EGF, PMA, and RA, which are agents known to induce dedifferentiation of chondrocytes. Specifically, chondrocytes were treated or untreated with 10 ng/mL EGF(a), 10 nM PMA(b), and 1 μM RA(c) for 2 hours, treated or untreated with 0.5 cGy or 1 cGy LDR for 36 hours, and the levels of catenin proteins and differentiation/inflammation-related proteins were determined via Western blot analysis (FIGS. 6a, 6b, and 6c).

[2] = 5 μM or 10 μM, 1 hour before 10 ng/mL IL-1β, 48 hours

Cc1ccc(S(=O)(=O)/C=C/C#N)cc1 [BAY 11-7082]
degradation of I-κB and induction of COX-2 in cells transfected with α-, β- or γ-catenin (chondrocytes; 5 μM or 10 μM for 24 hours, catenin-transfected chondrocytes): reversed | COX-2 protein expression compared to IL-1β-treated chondrocytes (chondrocytes; [2]): reduced COX-2 expression | I-κB degradation (chondrocytes; [2]): inhibited I-κB degradation in a dose-dependent manner

O=c1cc(N2CCOCC2)oc2c(-c3ccccc3)cccc12 [LY294002]
NF-κB activity reduced compared to IL-1β-treated chondrocytes (NF-κB; 10 μM): about 48% | NF-κB activity reduced compared to IL-1β-treated chondrocytes (NF-κB; 20 μM): ~68%

CCCCCCCCCCCCCC(=O)O[C@@H]1[C@@H](C)[C@@]2(O)[C@@H](C=C(CO)C[C@]3(O)C(=O)C(C)=C[C@@H]23)[C@@H]2C(C)(C)[C@]12OC(C)=O [PMA, phorbol 12-myristate 13-acetate]
pathological changes induced by soluble factor (type II collagen, Sox-9, COX-2 proteins) (chondrocytes; 10 ng/mL EGF, 10 nM PMA or 1 μM RA): inhibition of expression of type II collagen and Sox-9 proteins and induction of COX-2 protein expression

IL-1β: cytokine used at 10 ng/mL to induce dedifferentiation, inflammation and destruction of chondrocytes
transcriptional activity of Sox-9 reduced compared to control cells (Sox-9; 24 hours after treatment): about 32% | transcriptional activity of Sox-9 reduced compared to control cells (Sox-9; 48 hours after treatment): ~60% | NF-κB activity increase, IL-1β treatment alone (NF-κB; 10 ng/mL IL-1β alone, 24 hours after treatment, catenin experiment (FIG. 4d)): about 8.5 fold | transcriptional activity of NF-κB increased (NF-κB; 24 hours after treatment (FIG. 2c)): about 8.6 fold | transcriptional activity of NF-κB increased (NF-κB; 48 hours after treatment (FIG. 2c)): ~6.7 fold | level of COX-2 expression increased compared to control group (COX-2; 24 hours after treatment): about 9.8 fold | level of COX-2 expression increased compared to control group (COX-2; 48 hours after treatment): ~7.7 fold | phosphorylation of Akt induced by treatment (Akt): induced the phosphorylation of Akt | level of type II collagen and Sox-9 proteins (chondrocytes; 10 ng/mL IL-1β alone): reduced the level of type II collagen and Sox-9 proteins | expression of α-, β-, and γ-catenin proteins [1]: expressed in a time-dependent manner
